In PubChem BioAssay (NCI):
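Results reflect a 48-hour exposure of cells in 96-well plates to compound at five concentrations. At the GI50, growth is halved. TGI: concentration producing complete growth inhibition.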

What was measured:
Experiment in all cases: DTP human tumour cell line panel, 48 h
HT29 colon = system: HT29 colon
SNB-75 CNS = system: SNB-75 CNS
U251 CNS = system: U251 CNS
UACC-62 melanoma = system: UACC-62 melanoma
EKVX NSCLC = system: EKVX NSCLC
SN12C renal = system: SN12C renal
A549 NSCLC = system: A549 NSCLC
DU-145 prostate = system: DU-145 prostate
HS 578T breast = system: HS 578T breast
MCF7 breast = system: MCF7 breast

SMILES | TGI (HT29 colon) [µM] | TGI (SNB-75 CNS) [µM] | TGI (U251 CNS) [µM] | TGI (UACC-62 melanoma) [µM] | TGI (EKVX NSCLC) [µM] | TGI (SN12C renal) [µM] | TGI (A549 NSCLC) [µM] | GI50 (HT29 colon) [µM] | GI50 (SNB-75 CNS) [µM] | GI50 (DU-145 prostate) [µM] | TGI (DU-145 prostate) [µM] | GI50 (HS 578T breast) [µM] | GI50 (U251 CNS) [µM] | GI50 (UACC-62 melanoma) [µM] | GI50 (SN12C renal) [µM] | GI50 (MCF7 breast) [µM] | TGI (MCF7 breast) [µM] | GI50 (A549 NSCLC) [µM] | TGI (HS 578T breast) [µM] | GI50 (EKVX NSCLC) [µM]
CC[C@@H]1C[C@H]2CC3c4[nH]c5ccc(O)cc5c4CCN(C2)C31 | > 100 | > 100 | > 100 | > 100 | > 100 | > 100 | > 100 | – | – | – | – | – | – | – | – | – | – | – | – | –
COc1cc(-c2nn(-c3cccc(NC(=O)c4ccc(N5CCOCC5)c(C(F)(F)F)c4)c3)cc2-c2ccncc2)ccc1Cl | 2.19 | 0.572 | 4.32 | 7.07 | – | > 75.8 | > 36.9 | 0.466 | 0.0818 | 0.379 | > 39.3 | 0.257 | 0.36 | 0.207 | 0.709 | 0.263 | > 100 | 0.287 | – | –
c1ccc2c(c1)[nH]c1c2nc2ncccn21 | > 100 | > 100 | > 100 | > 100 | > 100 | > 100 | > 100 | – | – | – | – | – | – | – | – | – | – | – | – | –
CCN(CC)CCCC(C)N=c1cc(Nc2cc(=NC(C)CCCN(CC)CC)c3cc(OC)ccc3o2)oc2ccc(OC)cc12 (stereo not drawn) | 1.97 | 2.93 | 3.4 | 2.39 | – | 11.8 | 1.87 | 0.588 | 0.829 | 1.17 | 3.19 | 3.33 | 1.15 | 1.04 | 1.4 | 1.08 | 3.68 | 0.849 | 14.8 | –
C=CN(C)S(C)(=O)=O | > 100 | > 100 | > 100 | > 100 | – | > 100 | > 100 | > 100 | > 100 | > 100 | > 100 | > 100 | > 100 | > 100 | > 100 | > 100 | > 100 | > 100 | > 100 | –
O=c1oc2ccc(-n3c(=O)c4ccccc4c4ccccc4c3=O)cc2c2ccccc12 | > 100 | 85.7 | 63.6 | > 100 | > 100 | > 100 | > 100 | – | – | – | – | – | – | – | – | – | > 100 | – | 81 | –
N#CC1=C(N)NC(=S)NC12Nc1ccccc1N2 | – | – | > 100 | 57.5 | > 100 | > 100 | > 100 | – | – | 65.3 | > 100 | 68.9 | > 100 | 12.5 | 55.5 | 22.7 | > 100 | 37.6 | > 100 | 65.6
O=C(NO)c1ccc(Cn2c(=O)n(-c3ccccc3F)c(=O)c3ccccc32)cc1 | 10.5 | 4.78 | 3.16 | 3.02 | – | – | 7.83 | 2.02 | 1.45 | 2.09 | > 100 | 1.9 | 1.55 | 1.24 | – | 2.21 | > 100 | 2.74 | 11.9 | –
